Where “and” joins values, the source holds several entries; their conditions need not be identical. Identical values can stand only once.
tested on: Diaporthe citri; test: in vitro-Test with Diaporthe citri (microtiter growth inhibition); assay type: cell-based; conditions: applied alone, 0.008 ppm
Procedure: (§1) If the actual fungicidal activity exceeds the calculated value, then the activity of the combination is super-additive, i.e. a synergistic effect exists. In this case, the efficacy, which was actually observed, must be greater than the value for the expected efficacy (E), that was calculated from the abovementioned formula.
(§2) Example: In Vitro-Test with Fungal Microorganisms
(§3) Wells of 96-well microtiter plates are filled with 10 μl of a preparation of test compound or compound combination in methanol+emulsifier alkylaryl-polyglycol-ether. Thereafter, the solvent is evaporated in a hood. At the next step, 100 μl of liquid potato dextrose medium is given into each well, that has been amended with an appropriate concentration of spores or mycelium suspension of the test fungus.
(§4) With the aid of a photometer, the extinction in all wells is measured at the wavelength of 620 nm.
(§5) The microtiter plates are incubated at 20° C. and 85% relative humidity. The inhibition of growth is determined again photometrically 3-5 days after the application. Efficacy is calculated in relation to the untreated control, 0% efficacy means fungal growth as high as in untreated control while 100% efficacy means no fungal growth is measured.

SMILES	Efficacy
CC1CC(C)(C)c2c(F)ccc(NC(=O)c3cn(C)nc3C(F)F)c21 (stereo not shown) [Compound 2.028, inpyrfluxam]	0% and 7%

same assay, conditions: applied alone, 0.04 ppm

SMILES	Efficacy
CC1CC(C)(C)c2c(F)ccc(NC(=O)c3cn(C)nc3C(F)F)c21 (stereo not shown) [Compound 2.028, inpyrfluxam]	23%

same assay, conditions: applied alone, 0.2 ppm

SMILES	Efficacy
CC1CC(C)(C)c2c(F)ccc(NC(=O)c3cn(C)nc3C(F)F)c21 (stereo not shown) [Compound 2.028, inpyrfluxam]	47% and 32%

same assay, conditions: applied alone, 1.0 ppm

SMILES	Efficacy
CC1CC(C)(C)c2c(F)ccc(NC(=O)c3cn(C)nc3C(F)F)c21 (stereo not shown) [Compound 2.028, inpyrfluxam]	92% and 94%

tested on: Alternaria alternate; test: in vitro-Test with Alternaria alternate (microtiter growth inhibition); assay type: cell-based; conditions: applied alone, 0.008 ppm
Procedure: (§6) The degree of efficacy expressed in % is denoted: 0% means an efficacy, which corresponds to that of the control, while an efficacy of 100% means that no disease is observed.
as §1, §2, §3, §4, §5

SMILES	Efficacy
CC1CC(C)(C)c2c(F)ccc(NC(=O)c3cn(C)nc3C(F)F)c21 (stereo not shown) [Compound 2.028, inpyrfluxam]	0%

same assay, conditions: applied alone, 0.04 ppm

SMILES	Efficacy
CC1CC(C)(C)c2c(F)ccc(NC(=O)c3cn(C)nc3C(F)F)c21 (stereo not shown) [Compound 2.028, inpyrfluxam]	57%

same assay, conditions: applied alone, 0.2 ppm

SMILES	Efficacy
CC1CC(C)(C)c2c(F)ccc(NC(=O)c3cn(C)nc3C(F)F)c21 (stereo not shown) [Compound 2.028, inpyrfluxam]	73%

same assay, conditions: applied alone, 1.0 ppm

SMILES	Efficacy
CC1CC(C)(C)c2c(F)ccc(NC(=O)c3cn(C)nc3C(F)F)c21 (stereo not shown) [Compound 2.028, inpyrfluxam]	79%

tested on: not listed separately; test: Measurement of Log P values by HPLC on reversed phase columns (EEC directive 79/831 Annex V.A8), methods [a], [b], [c]; assay type: physicochemical; conditions: HPLC method [a]
Procedure: Measurement of Log P values as provided herein was performed according to EEC directive 79/831 Annex V.A8 by HPLC (High Performance Liquid Chromatography) on reversed phase columns with the following methods: • ^[a]

SMILES	LogP
C=C(C)c1cc(C(=O)NCC(F)(F)c2ccc(C)cc2C)c(Oc2cccc(C(F)(F)F)c2)nn1 [I-222]	4.87^[a]
COc1ccc(CCNC(=O)c2cc(Cl)nnc2Oc2cccc(C(F)(F)F)c2)cc1OC [I-268]	3.26^[a]
O=C(NCC(F)(F)c1ccc(Cl)cc1)c1c(Oc2cccc(C(F)(F)F)c2)nnc(Cl)c1NC1CCCCC1 [I-272]	4.98^[a]
O=C(NCc1cnc2ccccc2c1)c1cc(Cl)nnc1Oc1cccc(C(F)(F)F)c1 [I-306]	2.71^[a]
O=C(NCCc1ccc(C(F)F)cc1)c1cc(Cl)nnc1Oc1cccc(C(F)(F)F)c1 [I-309]	3.78^[a]
O=C(NCC(F)(F)c1ccc(Br)cc1Cl)c1cc(C2CC2)nnc1Oc1cccc(C(F)(F)F)c1 [I-312]	4.79^[a];
O=C(NCC(F)(F)c1ccc(Br)cc1Cl)c1cc(Cl)nnc1Oc1cccc(C(F)(F)F)c1F [I-315]	4.71^[a]
Cc1ccc(C(F)(F)CNC(=O)c2cc(-c3ccncc3)nnc2Oc2cccc(C(F)(F)F)c2)c(C)c1 [I-316]	3.65^[a]
Cc1c(Cl)nnc(Oc2cccc(C(F)(F)F)c2)c1C(=O)NCC(F)(F)c1ccc(Cl)cc1Cl [I-338]	4.43^[a]
Cc1ccc(CCNC(=O)c2cc(Cl)nnc2Oc2cccc(C(F)(F)F)c2)c(-c2nccn2C)c1 [I-341]	1.85^[a]
O=C(NCC(F)(F)c1ccc(C2CC2)cc1Cl)c1cc(Cl)nnc1Oc1cccc(C(F)(F)F)c1 [I-360]	4.58^[a]
O=C(NCc1cncc2ccccc12)c1cc(Cl)nnc1Oc1cccc(C(F)(F)F)c1 [I-379]	2.14^[a]
Cc1cc(Br)ccc1C(F)(F)CNC(=O)c1cc(Cl)nnc1Oc1cccc(C(F)(F)F)c1 [I-404]	4.57^[a]
Cc1ccc(C(F)(F)CNC(=O)c2cc(C)nnc2Oc2cccc(C(F)(F)F)c2)c(C)c1 [I-411]	4.00^[a]
O=C(NCC(F)(F)c1ccc(C(F)(F)F)cc1Cl)c1cc(Cl)nnc1Oc1cccc(C(F)(F)F)c1 [I-418]	4.45^[a]

same assay, conditions: HPLC method [b]

SMILES	LogP
Cc1cc(C(=O)NCCc2ccc(C(F)F)cn2)c(Oc2cccc(C3CC3)c2)nn1 [I-282]	2.82^[b]

same assay, conditions: HPLC on reversed phase column, method [a]

SMILES	LogP
O=C(NCC(F)(F)c1ccc(F)cc1F)c1cc(Cl)nnc1Oc1cccc(C(F)(F)F)c1 [I-067]	3.75^[a]
O=C(NCCc1ccc(C(F)(F)F)cn1)c1cc(Cl)nnc1Oc1cccc(C(F)(F)F)c1 [I-068]	3.53^[a]
Cc1ccc(C(F)(F)CNC(=O)c2c(Oc3cccc(C(F)(F)F)c3)nnc(Cl)c2[S+](C)[O-])c(C)c1 (stereo not shown) [I-072]	3.75^[a]
CC(CNC(=O)c1cc(Cl)nnc1Oc1cccc(C(F)(F)F)c1)c1ccc(Cl)cc1Cl (stereo not shown) [I-075]	4.68^[a]
CC(=O)N(C)Cc1c(Cl)nnc(Oc2cccc(C(F)(F)F)c2)c1C(=O)NCCc1ccc(C)cc1C [I-077]	3.65^[a]
O=C(NCC(F)(F)c1ccc(SCC(F)(F)F)cc1Cl)c1cc(Cl)nnc1Oc1cccc(C(F)(F)F)c1 [I-087]	4.45^[a]
O=C(NCC(F)(F)c1ccc(Cl)cn1)c1cc(Cl)nnc1Oc1cccc(C(F)(F)F)c1 [I-108]	3.65^[a]
O=C(NCC(F)(F)c1ccc(Cl)cn1)c1cc(Cl)nnc1Oc1cccc(C(F)F)c1 [I-158]	3.32^[a]
Cc1ccc(C(F)(F)CNC(=O)c2cc(Cl)nnc2Oc2cncc(Br)c2)c(C)c1 [I-173]	3.78^[a]
CCOc1c(Cl)nnc(Oc2cccc(C(F)(F)F)c2)c1C(=O)NCC(F)(F)c1ccc(C)cc1C [I-181]	4.68^[a]
Cc1cnnc(Oc2cccc(C(F)(F)F)c2)c1C(=O)NCC(F)(F)c1ccc(Cl)cc1Cl [I-183]	3.78^[a]
Cc1c(Cl)nnc(Oc2cccc(C3CC3)c2F)c1C(=O)NCCc1ccc(Cl)cc1Cl [I-215]	4.58^[a]
O=C(NCC(F)(F)c1cc(Cl)sc1Cl)c1cc(Cl)nnc1Oc1cccc(C(F)(F)F)c1 [I-825]	4.73^[a]

same assay, conditions: method [a]

SMILES	LogP
CCSc1c(Cl)nnc(Oc2cccc(C(F)(F)F)c2)c1C(=O)NCC(F)(F)c1ccc(C)cc1C [I-442]	4.87^[a]
O=C(NCC(F)(F)c1ccc(Cl)cc1Br)c1cc(Cl)nnc1Oc1cccc(C(F)(F)F)c1 [I-478]	4.68^[a]
COc1ccc(CCNC(=O)c2c(Oc3cccc(C(F)(F)F)c3)nnc(Cl)c2C)c(OC)c1 [I-500]	3.65^[a]
Cc1ccc(C(F)(F)CNC(=O)c2cc(-c3cn[nH]c3)nnc2Oc2cccc(C(F)(F)F)c2)c(C)c1 [I-515]	3.65^[a]
Cc1cc(C(=O)NCCc2ccc(C(F)F)cn2)c(Oc2cccc(C(F)(F)F)c2)nn1 [I-525]	2.57^[a];
O=C(NCCc1ccc(-c2ccncc2)cc1)c1cc(Cl)nnc1Oc1cccc(C(F)(F)F)c1 [I-542]	2.13^[a]
Cc1cc(C(=O)NCCc2cccc3oc(C)nc23)c(Oc2cccc(C(F)(F)F)c2)nn1 [I-543]	2.96^[a]
O=C(NCCc1ccc2c(c1)CCO2)c1cc(Cl)nnc1Oc1cccc(C(F)(F)F)c1 [I-551]	3.65^[a]
O=C(NCc1cccc2cnccc12)c1cc(Cl)nnc1Oc1cccc(C(F)(F)F)c1 [I-559]	2.14^[a]
CCc1cccc(Oc2nnc(Cl)cc2C(=O)NCC(F)(F)c2ccc(C)cc2C)c1 [I-570]	4.68^[a]
O=C(NCCc1ccc2c(c1)OCCO2)c1cc(Cl)nnc1Oc1cccc(C(F)(F)F)c1 [I-573]	3.53^[a]
C#Cc1cc(C(=O)NCC(F)(F)c2ccc(C)cc2C)c(Oc2cccc(C(F)(F)F)c2)nn1 [I-577]	4.31^[a]
O=C(NCC(F)(F)c1ccc(Cl)cc1Cl)c1cc(Cl)nnc1Oc1cccc(C2CC2)c1F [I-598]	4.71^[a]
Cc1ccc(C2(CNC(=O)c3cc(Cl)nnc3Oc3cccc(C(F)(F)F)c3)CC2)cc1 [I-601]	4.58^[a]
O=C(NCC(F)(F)Oc1ccc(C(F)(F)F)cc1Cl)c1cc(Cl)nnc1Oc1cccc(C(F)(F)F)c1 [I-633]	4.58^[a]
O=C(NCCc1ncc(Cl)cn1)c1cc(Cl)nnc1Oc1cccc(C(F)(F)F)c1 [I-635]	3.05^[a]
COCCc1c(C2CC2)nnc(Oc2cccc(C(F)(F)F)c2)c1C(=O)NCC(F)(F)c1ccc(C)cc1C [I-636]	4.57^[a]
Cc1c(C2CC2)nnc(Oc2cccc(C(F)(F)F)c2)c1C(=O)NCC(F)(F)c1ccc(Cl)cc1Cl [I-642]	4.43^[a]
Cc1ccc(C(F)(F)CNC(=O)c2c(Oc3cccc(C(F)(F)F)c3)nnc(C3CC3)c2NC2CC2)c(C)c1 [I-650]	4.10^[a]
Cc1ccc(C(F)(F)CNC(=O)c2cc(CCC#N)nnc2Oc2cccc(C(F)(F)F)c2)c(C)c1 [I-662]	3.78^[a]
C=CCOc1c(Cl)nnc(Oc2cccc(C(F)(F)F)c2)c1C(=O)NCC(F)(F)c1ccc(C)cc1C [I-684]	4.87^[a]
Cc1cnn(CCNC(=O)c2cc(C)nnc2Oc2cccc(C(F)(F)F)c2)c1 [I-691]	2.58^[a]
CON(CCc1ccc(Cl)cc1Cl)C(=O)c1c(Oc2cccc(C3CC3)c2F)nnc(Cl)c1C [I-739]	5.36^[a]
CNc1c(Cl)nnc(Oc2cccc(C3CC3)c2F)c1C(=O)NCCc1ccc(Cl)cc1Cl [I-757]	4.09^[a]
Cc1ccc(C(F)(F)CNC(=O)c2cc(Cl)nnc2Oc2ccc3[nH]ccc3c2)c(C)c1 [I-769]	3.78^[a]
C=C(C)OC(=O)N(CC(F)(F)c1ccc(C)cc1C)C(=O)c1cc(Cl)nnc1Oc1cccc(C(F)(F)F)c1 [I-785]	5.51^[a]
COCCc1cc(C(=O)NCC(F)(F)c2ccc(C)cc2C)c(Oc2cccc(C(F)(F)F)c2)nn1 [I-796]	4.00^[a]
Cc1ccc(C(F)(F)CNC(=O)c2cc(Cc3ccccc3)nnc2Oc2cccc(C(F)(F)F)c2)c(C)c1 [I-797]	4.95^[a]
Cc1ccc(C(F)(F)CNC(=O)c2cc(CC3CCC3)nnc2Oc2cccc(C(F)(F)F)c2)c(C)c1 [I-798]	5.02^[a]
Cc1ccc(C(F)(F)CNC(=O)c2c(Oc3cccc(C(F)(F)F)c3)nnc(Cl)c2NCCC2CC2)c(C)c1 [I-809]	4.95^[a]

tested on: Botrytis cinerea; test: in vitro-Test with Botrytis cinerea (microtiter growth inhibition); assay type: cell-based; conditions: single active at 0.004 ppm
Procedure: as §6, §1, §2, §3, §4, §5

SMILES	Efficacy %
Cc1ccc(C(F)(F)CNC(=O)c2c(Oc3cccc(C4CC4)c3F)nnc(Cl)c2C)c(C)c1 [(1-655)]	0%
Cc1ccc(C(F)(F)CNC(=O)c2c(Oc3cccc(C4CC4)c3F)nnc(Cl)c2C)c(Cl)c1 [(1-746)]	0%
Cc1ccc(C(F)(F)CNC(=O)c2c(Oc3cccc(C4CC4)c3F)nnc(Cl)c2C)cc1C [(1-749)]	0%

same assay, conditions: single active at 0.020 ppm

SMILES	Efficacy %
Cc1ccc(C(F)(F)CNC(=O)c2c(Oc3cccc(C4CC4)c3F)nnc(Cl)c2C)c(C)c1 [(1-655)]	0%
Cc1ccc(C(F)(F)CNC(=O)c2c(Oc3cccc(C4CC4)c3F)nnc(Cl)c2C)c(Cl)c1 [(1-746)]	0%
Cc1ccc(C(F)(F)CNC(=O)c2c(Oc3cccc(C4CC4)c3F)nnc(Cl)c2C)cc1C [(1-749)]	0%

same assay, conditions: single active at 0.1 ppm

SMILES	Efficacy %
Cc1ccc(C(F)(F)CNC(=O)c2c(Oc3cccc(C4CC4)c3F)nnc(Cl)c2C)c(C)c1 [(1-655)]	58%
Cc1ccc(C(F)(F)CNC(=O)c2c(Oc3cccc(C4CC4)c3F)nnc(Cl)c2C)c(Cl)c1 [(1-746)]	38%
Cc1ccc(C(F)(F)CNC(=O)c2c(Oc3cccc(C4CC4)c3F)nnc(Cl)c2C)cc1C [(1-749)]	45%

same assay, conditions: single active at 0.5 ppm

SMILES	Efficacy %
Cc1ccc(C(F)(F)CNC(=O)c2c(Oc3cccc(C4CC4)c3F)nnc(Cl)c2C)c(C)c1 [(1-655)]	100%
Cc1ccc(C(F)(F)CNC(=O)c2c(Oc3cccc(C4CC4)c3F)nnc(Cl)c2C)c(Cl)c1 [(1-746)]	100%
Cc1ccc(C(F)(F)CNC(=O)c2c(Oc3cccc(C4CC4)c3F)nnc(Cl)c2C)cc1C [(1-749)]	99%

Source: patent US20230165252A1, “ACTIVE COMPOUND COMBINATIONS” (Bayer Aktiengesellschaft, priority 2020, published 2023)
